Experimental data: patent US8044087B2, “Hepatitis C virus inhibitors” (priority 2008, dated 2011)

Columns and labels:
[1] = tested on: HCV replicon in HUH-7 cells; assay: HCV replicon FRET assay (confirmed in replicon luciferase reporter assay); assay type: cell-based; conditions: Hepatitis C virus, 96 h, HUH-7 cells expressing HCV 1b replicon, 4 days
Source text: An HCV replicon whole cell system was established as described by Lohmann V, Korner F, Koch J, Herian U, Theilmann L, Bartenschlager R., Science 285(5424):110-3 (1999). This system enabled us to evaluate the effects of our HCV Protease compounds on HCV RNA replication. Briefly, using the HCV strain 1b sequence described in the Lohmann paper (Assession number: AJ238799), an HCV cDNA was synthesized by Operon Technologies, Inc. (Alameda, Calif.), and the full-length replicon was then assembled in plasmid pGem9zf(+) (Promega, Madison, Wis.) using standard molecular biology techniques. The replicon consists of (i) the HCV 5′ UTR fused to the first 12 amino acids of the capsid protein, (ii) the neomycin phosphotransferase gene (neo), (iii) the IRES from encephalomyocarditis virus (EMCV), and (iv) HCV NS3 to NS5B genes and the HCV 3′ UTR. Plasmid DNAs were linearized with ScaI and RNA transcripts were synthesized in vitro using the T7 MegaScript transcription kit (Ambion, Austin, Tex.) according to manufacturer's directions. In vitro transcripts of the cDNA were transfected into the human hepatoma cell line, HUH-7. […] Resulting cell lines were characterized for positive and negative strand RNA production and protein production over time.
The HCV replicon FRET assay was developed to monitor the inhibitory effects of compounds described in the disclosure on HCV viral replication. HUH-7 cells, constitutively expressing the HCV replicon, were grown in Dulbecco's Modified Eagle Media (DMEM) (Gibco-BRL) containing 10% Fetal calf serum (FCS) (Sigma) and 1 mg/ml G418 (Gibco-BRL). Cells were seeded the night before (1.5×10^4 cells/well) in 96-well tissue-culture sterile plates. Compound and no compound controls were prepared in DMEM containing 4% FCS, 1:100 Penicillin/Streptomysin (Gibco-BRL), 1:100 L-glutamine and 5% DMSO in the dilution plate (0.5% DMSO final concentration in the assay). Compound/DMSO mixes were added to the cells and incubated for 4 days at 37° C. After 4 days, cells were first assessed for cytotoxicity using alamar Blue (Trek Diagnotstic Systems) for a CC50 reading. The toxicity of compound (CC50) was determined by adding 1/10 volume of alamar Blue to the media incubating the cells. After 4 h, the fluorescence signal from each well was read, with an excitation wavelength at 530 nm and an emission wavelength of 580 nm, using the Cytofluor Series 4000 (Perspective Biosystems). Plates were then rinsed thoroughly with Phosphate-Buffered Saline (PBS) (3 times 150 μl).
As a secondary assay, EC50 determinations from the replicon FRET assay were confirmed in a replicon luciferase reporter assay. […] Following 4 days in a 37° C./5% CO2 incubator, cells were analyzed for Renilla Luciferase activity using the Promega Dual-Glo Luciferase Assay System. […]

[2] = target: T1, HCV NS3/4A protease complex (Hepatitis C virus genotype 1a, UniProt P27958, C1454S/C1711G); assay: FRET peptide assay to monitor HCV NS3/4A proteolytic activity; assay type: biochemical; conditions: recombinant NS3/4A protease complex, strain not stated
T1 construct: DNA encoding the recombinant HCV NS3/4A protease complex (amino acids 1027 to 1711) for these strains; inferred from the pET21b vector and Ni-NTA purification; made in house; host or cells: Escherichia coli BL21 (DE3)
Source text: HCV NS3 protease complexes, derived from the BMS strain, H77 strain or J4L6S strain, were generated, as described below. These purified recombinant proteins were generated for use in a homogeneous assay (see below) to provide an indication of how effective compounds of the present disclosure would be in inhibiting HCV NS3 proteolytic activity.
Serum from an HCV-infected patient was obtained from Dr. T. Wright, San Francisco Hospital. An engineered full-length cDNA (compliment deoxyribonucleic acid) template of the HCV genome (BMS strain) was constructed from DNA fragments obtained by reverse transcription-PCR (RT-PCR) of serum RNA (ribonucleic acid) and using primers selected on the basis of homology between other genotype 1a strains. From the determination of the entire genome sequence, a genotype 1a was assigned to the HCV isolate according to the classification of Simmonds et al. (See P Simmonds, K A Rose, S Graham, S W Chan, F McOmish, B C Dow, E A Follett, P L Yap and H Marsden, J. Clin. Microbiol., 31(6), 1493-1503 (1993)). […] The infectious clones, H77 (1a genotype) and J4L6S (1b genotype) were obtained from R. Purcell (NIH) and the sequences are published in Genbank (AAB67036, see Yanagi, M., Purcell, R. H., Emerson, S. U. and Bukh, J. Proc. Natl. Acad. Sci. U.S.A. 94(16), 8738-8743 (1997); AF054247, see Yanagi, M., St Claire, M., Shapiro, M., Emerson, S. U., Purcell, R. H. and Bukh, J., Virology 244 (1), 161-172. (1998)).
The H77 and J4L6S strains were used for production of recombinant NS3/4A protease complexes. DNA encoding the recombinant HCV NS3/4A protease complex (amino acids 1027 to 1711) for these strains was manipulated as described by P. Gallinari et al. (see Gallinari P, Paolini C, Brennan D, Nardi C, Steinkuhler C, De Francesco R. Biochemistry. 38(17):5620-32, (1999)). Briefly, a three-lysine solubilizing tail was added at the 3′-end of the NS4A coding region. The cysteine in the P1 position of the NS4A-NS4B cleavage site (amino acid 1711) was changed to a glycine to avoid the proteolytic cleavage of the lysine tag. Furthermore, a cysteine to serine mutation was introduced by PCR at amino acid position 1454 to prevent the autolytic cleavage in the NS3 helicase domain. The variant DNA fragment was cloned in the pET21b bacterial expression vector (Novagen) and the NS3/4A complex was expressed in Escherichia coli strain BL21 (DE3) (Invitrogen) following the protocol described by P. Gallinari et al. (see Gallinari P, Brennan D, Nardi C, Brunetti M, Tomei L, Steinkuhler C, De Francesco R., J Viral. 72(8):6758-69 (1998)) with modifications. Briefly, the NS3/4A protease complex expression was induced with 0.5 millimolar (mM) Isopropyl β-D-1-thiogalactopyranoside (IPTG) for 22 hours (h) at 20° C. […]

HCV = conditions: combination therapy; cited from earlier work

T1 sequence (P27958 1027-1711 C1454S/C1711G, one chain of several): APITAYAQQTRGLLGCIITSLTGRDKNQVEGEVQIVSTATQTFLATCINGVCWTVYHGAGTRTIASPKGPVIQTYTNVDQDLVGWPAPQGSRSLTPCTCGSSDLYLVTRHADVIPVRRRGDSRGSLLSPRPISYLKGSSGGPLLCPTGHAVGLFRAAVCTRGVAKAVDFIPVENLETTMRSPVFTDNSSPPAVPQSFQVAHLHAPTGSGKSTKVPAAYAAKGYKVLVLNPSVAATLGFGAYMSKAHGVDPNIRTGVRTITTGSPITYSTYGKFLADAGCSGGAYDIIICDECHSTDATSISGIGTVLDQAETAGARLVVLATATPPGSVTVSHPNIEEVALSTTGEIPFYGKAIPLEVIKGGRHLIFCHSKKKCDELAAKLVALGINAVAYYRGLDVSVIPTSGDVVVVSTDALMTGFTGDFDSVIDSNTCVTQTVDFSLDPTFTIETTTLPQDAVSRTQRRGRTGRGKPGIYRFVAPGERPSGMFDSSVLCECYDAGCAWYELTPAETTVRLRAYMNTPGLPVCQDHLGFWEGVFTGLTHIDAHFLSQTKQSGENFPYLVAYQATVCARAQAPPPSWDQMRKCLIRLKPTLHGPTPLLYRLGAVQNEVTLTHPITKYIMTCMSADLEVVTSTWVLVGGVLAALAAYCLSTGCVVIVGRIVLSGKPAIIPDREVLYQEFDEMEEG

Compound | EC50 [1] [nM] | IC50 [2] [nM] | EC50 ([1]; class symbols) [nM] | IC50 ([2]; class symbols) [nM] | sustained efficacy, share of patients (HCV) [%]
C=C[C@@H]1C[C@]1(NC(=O)[C@@H]1C[C@@]2(c3ccc(-c4ccccc4)cc3)CN1C(=O)[C@@H](NC(=O)OC(C)(C)C)CCCCC/C=C/CS2)C(=O)NS(=O)(=O)C1CC1 [Example 1, tert-butyl (3S,13R,15S,E)-13-(biphenyl-4-yl)-15-((1R,2S)-1-(cyclopropylsulfonylcarbamoyl)-2-vinylcyclopropylcarbamoyl)-2-oxo-12-thia-1-azabicyclo[11.2.1]hexadec-9-en-3-ylcarbamate] | 75 | 5 | – | – | –
C=C[C@@H]1C[C@]1(NC(=O)[C@@H]1C[C@@]2(c3ccc(-c4ccccc4)cc3)CN1C(=O)[C@@H](NC(=O)OC(C)(C)C)CCCCCC/C=C/CS2)C(=O)NS(=O)(=O)C1CC1 [Example 2, tert-butyl (3S,14R,16S,E)-14-(biphenyl-4-yl)-16-((1R,2S)-1-(cyclopropylsulfonylcarbamoyl)-2-vinylcyclopropylcarbamoyl)-2-oxo-13-thia-1-azabicyclo[12.2.1]heptadec-10-en-3-ylcarbamate] | – | – | 501 to 1000 | 5 to 30 | –
C=C[C@@H]1C[C@]1(NC(=O)[C@@H]1C[C@@]2(c3ccc(-c4ccccc4)cc3)CN1C(=O)[C@@H](NC(=O)OC(C)(C)C)CCCCCCCCCS2)C(=O)NS(=O)(=O)C1CC1 [Example 3, tert-butyl (3S,14R,16S)-14-(biphenyl-4-yl)-16-((1R,2S)-1-(cyclopropylsulfonylcarbamoyl)-2-vinylcyclopropylcarbamoyl)-2-oxo-13-thia-1-azabicyclo[12.2.1]heptadecan-3-ylcarbamate] | – | – | 501 to 1000 | 5 to 30 | –
C=C[C@@H]1C[C@]1(NC(=O)[C@@H]1C[C@@]2(c3ccc(-c4ccccc4)cc3)CN1C(=O)[C@@H](NC(=O)OC(C)(C)C)CCCC/C=C/CS2)C(=O)NS(=O)(=O)C1CC1 [Example 4, tert-butyl (3S,12R,14S,E)-12-(biphenyl-4-yl)-14-((1R,2S)-1-(cyclopropylsulfonylcarbamoyl)-2-vinylcyclopropylcarbamoyl)-2-oxo-11-thia-1-azabicyclo[10.2.1]pentadec-8-en-3-ylcarbamate] | – | – | 501 to 1000 | 31 to 100 | –
alpha-interferon and ribavirin | – | – | – | – | 40
